From patent US11352350B2, “IRAK degraders and uses thereof” (Kymera Therapeutics, Inc., priority 2018, dated 2022)
pIC50: −log10 of the molar value. Read-outs that look alike come from different tables or passages of the source.

Key:
IRAK4 = IRAK4 (Homo sapiens (Human), UniProt Q9NWZ3); assay: IRAK4 MSD degradation in OCI-LY10; type: cell-based; conditions: MSD
Procedure, shortened: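 Remaining IRAK4 quantified by electrochemiluminescent MSD sandwich assay with two anti-IRAK4 antibodies. Compounds were dosed as 8 concentrations in 1:3 steps from a 1 to 10 μM final top on OCI-LY10 cells, incubated 4 to 24 h at 37° C. under 5% CO2. DC50 fitted with a three-parameter logistic curve.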

OCI-LY10 = assay: CTG Cell Viability Assay - OCI-LY10; type: cell-based, human; conditions: OCI-LY10, 4 days, read-out: CTG Cell Viability Assay - OCI-LY10: Average external-IC50
Procedure, shortened: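 Viability read by CellTiter-Glo luminescence after 4 days at 37° C under 5% CO2 with compound (top 10 μM final, 1:3 steps, 9 doses, DMSO 0.2%). Three-parameter logistic fit gave IC50.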

[1] = OCI-LY10, 4 hrs, read-out: IRAK4 MSD degradation in OCI-LY10 at 4 hrs: Average external-Abs DC50
[2] = OCI-LY10, 24 hrs, read-out: IRAK4 MSD degradation in OCI-LY10 at 24 hrs: Average external-Abs DC50

IRAK4, sequence (Q9NWZ3 whole entry): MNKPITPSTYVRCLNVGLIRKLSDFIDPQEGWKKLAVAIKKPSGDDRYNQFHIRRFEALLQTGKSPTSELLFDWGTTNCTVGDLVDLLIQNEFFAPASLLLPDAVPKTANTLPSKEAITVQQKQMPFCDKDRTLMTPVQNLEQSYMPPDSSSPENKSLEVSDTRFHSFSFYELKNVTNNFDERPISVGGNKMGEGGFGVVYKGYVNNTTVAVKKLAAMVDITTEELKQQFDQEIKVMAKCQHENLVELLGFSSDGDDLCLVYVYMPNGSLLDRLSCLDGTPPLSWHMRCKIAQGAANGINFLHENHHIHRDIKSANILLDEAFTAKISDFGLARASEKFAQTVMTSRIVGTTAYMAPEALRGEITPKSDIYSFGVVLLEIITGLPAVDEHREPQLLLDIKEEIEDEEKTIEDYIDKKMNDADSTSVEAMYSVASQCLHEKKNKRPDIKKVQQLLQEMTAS

SMILES	DC50 (IRAK4; [1])	pIC50 (OCI-LY10; Homo sapiens, OCI-Ly10, 96 h)	DC50 (IRAK4; [2])	pIC50 (OCI-LY10)
CN(C[C@H]1CC[C@H](n2cc(NC(=O)c3cnn4ccc(N[C@@H]5CCCC[C@@H]5O)nc34)c(C(F)F)n2)CC1)C1CCN(Cc2cccc3c2n(C)c(=O)n3C2CCC(=O)NC2=O)CC1 (stereo partly drawn) [I-279]	< 10 nM	< 6.00		
Cn1c(=O)n(C2CCC(=O)NC2=O)c2ccc(CCCOC3CCN(C[C@H]4CC[C@H](n5cc(NC(=O)c6cnn7ccc(N[C@@H]8CCCC[C@@H]8O)nc67)c(C(F)F)n5)CC4)CC3)cc21 (stereo partly drawn) [I-280]	10 to 100 nM	< 6.00		
CN1C(=O)C(C2CCC(=O)NC2=O)c2cccc(CCCOC3CCN(C[C@H]4CC[C@H](n5cc(NC(=O)c6cnn7ccc(N8CC[C@H](O)C8)nc67)c(C(F)F)n5)CC4)CC3)c21 (stereo partly drawn) [I-282]	< 10 nM	< 6.00		
CN1C(=O)C(C2CCC(=O)NC2=O)c2cccc(CCCOC3CCN(C[C@H]4CC[C@H](n5cc(NC(=O)c6cnn7ccc(N8CC(O)C8)nc67)c(C(F)F)n5)CC4)CC3)c21 (stereo partly drawn) [I-284]	< 10 nM	< 6.00		
C[C@H]1CN(c2ccn3ncc(C(=O)Nc4cn([C@H]5CC[C@H](CN6CCC(OCCCc7cccc8c7n(C)c(=O)n8C7CCC(=O)NC7=O)CC6)CC5)nc4C(F)F)c3n2)C[C@H](C)O1 (stereo partly drawn) [I-285]	10 to 100 nM	< 6.00		
CN1C(=O)C(C2CCC(=O)NC2=O)c2cccc(CCCOC3CCN(C[C@H]4CC[C@H](n5cc(NC(=O)c6cnn7ccc(N8CCC(C)(O)CC8)nc67)c(C(F)F)n5)CC4)CC3)c21 (stereo partly drawn) [I-286]	10 to 100 nM	< 6.00		
CN1C(=O)C(C2CCC(=O)NC2=O)c2cccc(CCCOC3CCN(C[C@H]4CC[C@H](n5cc(NC(=O)c6cnn7ccc(N8CC9(COC9)C8)nc67)c(C(F)F)n5)CC4)CC3)c21 (stereo partly drawn) [I-287]	< 10 nM	< 6.00		
CN1C(=O)C(C2CCC(=O)NC2=O)c2cccc(CCCOC3CCN(C[C@H]4CC[C@H](n5cc(NC(=O)c6cnn7ccc(NCCC(C)(C)O)nc67)c(C(F)F)n5)CC4)CC3)c21 (stereo partly drawn) [I-288]	< 10 nM	< 6.00		
Cn1c(=O)n(C2CCC(=O)NC2=O)c2cccc(CCCOC3CCN(C[C@H]4CC[C@H](n5cc(NC(=O)c6cnn7ccc(N8C(=O)N[C@@H]9[C@H]8CCCC9(F)F)nc67)c(C(F)F)n5)CC4)CC3)c21 (stereo partly drawn) [I-291]	10 to 100 nM	> 7.30	10 to 100 nM	
Cn1c(=O)n(C2CCC(=O)NC2=O)c2cccc(CCCOC3CCN(C[C@H]4CC[C@H](n5cc(NC(=O)c6cnn7ccc(N[C@@H]8CCCC[C@H]8O)nc67)c(C(F)F)n5)CC4)CC3)c21 (stereo partly drawn) [I-293]	10 to 100 nM	< 6.00		
O=C1CCC(N2C(=O)c3cccc(NCCCOC4CCN(C[C@H]5CC[C@H](n6cc(NC(=O)c7cnn8ccc(N[C@@H]9CCCC[C@@H]9O)nc78)c(C(F)F)n6)CC5)CC4)c3C2=O)C(=O)N1 (stereo partly drawn) [I-294]	10 to 100 nM	> 7.30		
O=C1CCC(N2C(=O)c3cccc(OCCCOC4CCN(C[C@H]5CC[C@H](n6cc(NC(=O)c7cnn8ccc(N[C@@H]9CCCC[C@@H]9O)nc78)c(C(F)F)n6)CC5)CC4)c3C2=O)C(=O)N1 (stereo partly drawn) [I-296]	10 to 100 nM	< 6.00		
O=C1CCC(N2C(=O)c3cccc(OCCCOC4CCN(C[C@H]5CC[C@H](n6cc(NC(=O)c7cnn8ccc(N9CCOCC9)nc78)c(C(F)F)n6)CC5)CC4)c3C2=O)C(=O)N1 (stereo partly drawn) [I-297]	10 to 100 nM			< 6.00
O=C1CCC(N2C(=O)c3cccc(N4CCC(CCCN5CCC(n6cc(NC(=O)c7cnn8ccc(N[C@@H]9CCCC[C@@H]9O)nc78)c(C(F)F)n6)CC5)CC4)c3C2=O)C(=O)N1 (stereo partly drawn) [I-298]	100 to 1000 nM	6.30 to 7.00		
O=C1CCC(N2C(=O)c3cccc(NCCOC4CCN(C[C@H]5CC[C@H](n6cc(NC(=O)c7cnn8ccc(N9C[C@H]%10C[C@@H]9CO%10)nc78)c(C(F)F)n6)CC5)CC4)c3C2=O)C(=O)N1 (stereo partly drawn) [I-299]	10 to 100 nM	7.00 to 7.30		
Cn1c(=O)n(C2CCC(=O)NC2=O)c2cccc(CCCOC3CCN(C[C@H]4CC[C@H](n5cc(NC(=O)c6cnn7ccc(N[C@@H]8CCCC(F)(F)[C@@H]8N)nc67)c(C(F)F)n5)CC4)CC3)c21 (stereo partly drawn) [I-300]	100 to 1000 nM	6.00 to 6.30		
CC([C@H]1CC[C@H](n2cc(NC(=O)c3coc(-c4ccnc(NCC5CC5)c4)n3)c(C(F)F)n2)CC1)N1CCC(OCCCc2cccc3c2n(C)c(=O)n3C2CCC(=O)NC2=O)CC1 (stereo partly drawn) [I-301, 2-[2-(Cyclopropylmethylamino)-4-pyridyl]-N-[3-(difluoromethyl)-1-[4-[1-[4-[3-[1-(2,6-dioxo-3-piperidyl)-3-methyl-2-oxo-benzimidazol-4-yl]propoxy]-1-piperidyl]ethyl]cyclohexyl]pyrazol-4-yl] oxazole-4-carboxamide]	10 to 100 nM	> 7.30		
Cn1c(=O)n(C2CCC(=O)NC2=O)c2cccc(CCCOC3CCN(C[C@H]4CC[C@H](n5cc(NC(=O)c6cnn7ccc(N8C[C@H](N)CC(F)(F)C8)nc67)c(C(F)F)n5)CC4)CC3)c21 (stereo partly drawn) [I-303, 5-[(5R)-5-amino-3,3-difluoro-1-piperidyl]-N-[3-(difluoromethyl)-1-[4-[[4-[3-[1-(2,6-dioxo-3-piperidyl)-3-methyl-2-oxo-benzimidazol-4-yl]propoxy]-1-piperidyl]methyl]cyclohexyl]pyrazol-4-yl] pyrazolo [1,5-a] pyrimidine-3-carboxamide]	10 to 100 nM	< 6.00		
Cn1c(=O)n(C2CCC(=O)NC2=O)c2cccc(CCCOC3CCN([C@H]4CC[C@H](Nc5ncnc6ccc(C#N)cc56)CC4)CC3)c21 (stereo partly drawn) [I-304, 4-[[4-[4-[3-[1-(2,6-dioxo-3-piperidyl)-3-methyl-2-oxo-benzimidazol-4-yl]propoxy]-1-piperidyl]cyclohexyl]amino] quinazoline-6-carbonitrile]	> 1000 nM	< 6.00	> 1000 nM	
Cn1c(=O)n(C2CCC(=O)NC2=O)c2cccc(CCCOC3CCN([C@H]4CC[C@@H](Nc5ncnc6ccc(C#N)cc56)CC4)CC3)c21 (stereo partly drawn) [I-305, 4-[[4-[4-[3-[1-(2,6-dioxo-3-piperidyl)-3-methyl-2-oxo-benzimidazol-4-yl]propoxy]-1-piperidyl]cyclohexyl]amino]quinazoline-6-carbonitrile]	> 1000 nM	< 6.00	> 1000 nM	
CN(C[C@H]1CC[C@H](n2cc(NC(=O)c3coc(-c4ccnc(NCC5CC5)c4)n3)c(C(F)F)n2)CC1)C1CCN(Cc2cccc3c2n(C)c(=O)n3[C@H]2CCC(=O)NC2=O)CC1 [I-308, 2-(2-((cyclopropylmethyl)amino)pyridin-4-yl)-N-(3-(difluoromethyl)-1-((1S,4r)-4-(((1-((1-((S)-2,6-dioxopiperidin-3-yl)-3-methyl-2-oxo-2,3-dihydro-1H-benzo [d]imidazol-4-yl)methyl)piperidin-4-yl)(methyl)amino)methyl)cyclohexyl)-1H-pyrazol-4-yl)oxazole-4-carboxamide]	< 10 nM	> 7.30		
CN(C[C@H]1CC[C@H](n2cc(NC(=O)c3coc(-c4ccnc(NCC5CC5)c4)n3)c(C(F)F)n2)CC1)C1CCN(Cc2cccc3c2n(C)c(=O)n3[C@@H]2CCC(=O)NC2=O)CC1 [I-309, 2-(2-((cyclopropylmethyl)amino)pyridin-4-yl)-N-(3-(difluoromethyl)-1-((1R,4r)-4-(((1-((1-((R)-2,6-dioxopiperidin-3-yl)-3-methyl-2-oxo-2,3-dihydro-1H-benzo [d]imidazol-4-yl)methyl)piperidin-4-yl)(methyl)amino)methyl)cyclohexyl)-1H-pyrazol-4-yl)oxazole-4-carboxamide]	10 to 100 nM	> 7.30		
Cn1c(=O)n([C@H]2CCC(=O)NC2=O)c2cccc(CCCOC3CCN(C[C@H]4CC[C@H](n5cc(NC(=O)c6cnn7ccc(N8CCOCC8)nc67)c(C(F)F)n5)CC4)CC3)c21 [I-310, N-(3-(difluoromethyl)-1-((1r,4r)-4-((4-(3-(1-((S)-2,6-dioxopiperidin-3-yl)-3-methyl-2-oxo-2,3-dihydro-1H-benzo [d]imidazol-4-yl)propoxy)piperidin-1-yl)methyl)cyclohexyl)-1H-pyrazol-4-yl)-5-morpholinopyrazolo[1,5-a]pyrimidine-3-carboxamide]	< 10 nM	< 6.00		
Cn1c(=O)n([C@@H]2CCC(=O)NC2=O)c2cccc(CCCOC3CCN(C[C@H]4CC[C@H](n5cc(NC(=O)c6cnn7ccc(N8CCOCC8)nc67)c(C(F)F)n5)CC4)CC3)c21 [I-311, N-(3-(difluoromethyl)-1-((1r,4r)-4-((4-(3-(1-((R)-2,6-dioxopiperidin-3-yl)-3-methyl-2-oxo-2,3-dihydro-1H-benzo [d]imidazol-4-yl)propoxy)piperidin-1-yl)methyl)cyclohexyl)-1H-pyrazol-4-yl)-5-morpholinopyrazolo[1,5-a] pyrimidine-3-carboxamide]	10 to 100 nM	< 6.00		
NC[C@H]1CC[C@H](n2cc(NC(=O)c3coc(-c4ccnc(NCC5CC5)c4)n3)c(C(F)F)n2)CC1 [I-312, N-[1-[4-(aminomethyl)cyclohexyl]-3-(difluoromethyl)pyrazol-4-yl]-2-[2-(cyclopropylmethylamino)-4-pyridyl]oxazole-4-carboxamide]	> 1000 nM	< 6.00	> 1000 nM	
NC[C@H]1CC[C@H](n2cc(NC(=O)c3cnn4ccc(N5CCOCC5)nc34)c(C(F)F)n2)CC1 [I-313, N-[l-[4-(aminomethyl)cyclohexyl]-3-(difluoromethyl)pyrazol-4-yl]-5-morpholino-pyrazolo [1,5-a]pyrimidine-3-carboxamide]	> 1000 nM	< 6.00	> 1000 nM	
